Counter-ions that a name gives are not always drawn.
What was measured:
[1] = tested on: full length SMN2 minigene mRNA (FL SMN2mini) in HEK293H cells stably transfected with the SMN2-A minigene construct; experiment: SMN2 minigene mRNA splicing RT-qPCR assay in cultured cells; assay type: cell-based; conditions: Homo sapiens, HEK293-H, 24 hours, 7-point concentration curve, concentration giving 1.5-fold FL SMN2mini mRNA vs vehicle, read-out: EC1.5x minigene (EC1.5x concentration for production of full length SMN2 minigene mRNA)
Procedure: The reverse transcription-quantitative PCR-based (RT-qPCR) assay is used to quantify the level of the full length SMN2 minigene (referred to herein by the term “FL SMN2mini”) mRNA containing SMN2 exon 7 in a HEK293H cell line stably transfected with said minigene and treated with a test compound.
The SMN2-A minigene construct was prepared as described in International Patent Application WO2009/151546A1 page 145 paragraph [00400] to page 147 paragraph [00412](incl. FIG. 1 and FIG. 3 therein).
HEK293H cells stably transfected with the SMN2-A minigene construct (10,000 cells/well) are seeded in 200 μL of cell culture medium (DMEM plus 10% FBS, with 200 μg/mL hygromycin) in 96-well flat-bottom plates and the plate is immediately swirled to ensure proper dispersal of cells and the formation of an even monolayer of cells. Cells are allowed to attach for 6 hours. […] A solution of test compound (1 μL, 200× in DMSO) is added to each cell-containing well and the plate is incubated for 24 hours in a cell culture incubator (37° C., 5% CO2, 100% relative humidity). 2 replicates are prepared for each test compound concentration. The cells are then lysed in the Cells-To-Ct lysis buffer and the lysate is stored at −80° C.
Full length SMN2-A minigene and GAPDH mRNA are quantified using the primers and probes referenced in Table 1. Primer SMN Forward A (SEQ ID NO.1) hybridizes to a nucleotide sequence in exon 7 (nucleotide 22 to nucleotide 40), primer SMN Reverse A (SEQ ID NO.2) hybridizes to a nucleotide sequence in the coding sequence of Firefly luciferase, SMN Probe A (SEQ ID NO.3) hybridizes to a nucleotide sequence in exon 7 (nucleotide 50 to nucleotide 54) and exon 8 (nucleotide 1 to nucleotide 21). The combination of these three oligonucleotides detects only SMN1 or SMN2 minigenes (RT-qPCR) and will not detect endogenous SMN1 or SMN2 genes.
The SMN forward and reverse primers are used at final concentrations of 0.4 μM. The SMN probe is used at a final concentration of 0.15 μM. The GAPDH primers are used at final concentrations of 0.2 μM and the probe at 0.15 μM.
The SMN2-minigene GAPDH mix (15 μL total volume) is prepared by combining 7.5 μL of 2×RT-PCR buffer, 0.4 μL of 25×RT-PCR enzyme mix, 0.75 μL of 20×GAPDH primer-probe mix, 4.0075 μL of water, 2 μL of 10-fold diluted cell lysate, 0.06 μL of 100 μM SMN forward primer, 0.06 μL of 100 μM SMN reverse primer, and 0.225 μL of 100 μM SMN probe.
PCR is carried out at the following temperatures for the indicated time: Step 1: 48° C. (15 min); Step 2: 95° C. (10 min); Step 3: 95° C. (15 sec); Step 4: 60° C. (1 min); then repeat Steps 3 and 4 for a total of 40 cycles.
Each reaction mixture contains both SMN2-A minigene and GAPDH primers/probe sets (multiplex design), allowing simultaneous measurement of the levels of two transcripts.
The increase in the abundance of the FL SMN2mini mRNA relative to that in cells treated with vehicle control is determined from real-time PCR data using a modified ΔΔCt method (as described in Livak and Schmittgen, Methods, 2001, 25:402-8). The amplification efficiency E is calculated from the slope of the amplification curve for FL SMN2mini and GAPDH individually. The abundance of FL SMN2mini and GAPDH mRNA are then calculated as (1+E)^−Ct, where Ct is the threshold value for each amplicon. The abundance of FL SMN2mini mRNA is normalized to GAPDH mRNA abundance. The normalized FL SMN2mini mRNA abundance from test compound-treated samples is then divided by normalized FL SMN2mini mRNA abundance from vehicle-treated cells to determine the level of FL SMN2mini mRNA relative to vehicle control.
Table 2 provides EC1.5x concentrations for production of full length SMN2 minigene mRNA that was obtained from the 7-point concentration data generated according to the above procedure for particular compounds of the present invention.

SMN protein = SMN protein assay (HTRF) in cultured SMA patient fibroblast cells; assay type: cell-based; conditions: SMA Type 1 human fibroblasts GM03813, 48 hours; for EC1.5x SMN protein (EC1.5x concentration for SMN protein expression): 7-point concentration curve, concentration giving 1.5 times SMN protein vs vehicle; for max. fold increase (maximum fold increase of SMN protein): 7-point concentration data, fold vs vehicle control
How it was run: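 SMA patient fibroblasts seeded at 5,000 cells/well, treated 48 h at 37 °C in triplicate per concentration (7-point series). Lysed in RIPA with protease inhibitors; SMN read by HTRF (anti-SMN d2/kryptate, overnight RT), 665/620 nm ratio. ΔF vs blank, expressed as fold over vehicle; EC1.5x and maximum fold increase derived.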

SMILES: COc1cc(N2CCNC(C)C2)ncc1C(=O)Nc1cc(F)c2nc(C)cn2c1 (racemic) [Example 76, rac-N-(8-fluoro-2-methylimidazo[1,2-a]pyridin-6-yl)-4-methoxy-6-(3-methylpiperazin-1-yl)nicotinamide]
- EC (1.5-fold) [1]: 0.0187 µM
- EC1.5x SMN protein (EC1.5x concentration for SMN protein expression) (SMN protein): 0.1629 µM
- max. fold increase (maximum fold increase of SMN protein) (SMN protein): 1.7274

SMILES: Cc1cn2cc(NC(=O)c3ccc(N4CCN(C)C(C)C4)nc3)ccc2n1 (racemic) [Example 82, rac-6-(3,4-dimethylpiperazin-1-yl)-N-(2-methylimidazo[1,2-a]pyridin-6-yl)nicotinamide]
- EC (1.5-fold) [1]: 0.371 µM
- EC1.5x SMN protein (EC1.5x concentration for SMN protein expression) (SMN protein): 0.7698 µM
- max. fold increase (maximum fold increase of SMN protein) (SMN protein): 1.7306

SMILES: Cc1cn2cc(NC(=O)c3ccc(N4CCNCC4)cc3)nc2c(C)n1 [Example 1, N-(6,8-dimethylimidazo[1,2-a]pyrazin-2-yl)-4-(piperazin-1-yl)benzamide]
- EC (1.5-fold) [1]: 0.0316 µM
- EC1.5x SMN protein (EC1.5x concentration for SMN protein expression) (SMN protein): 0.7747 µM
- max. fold increase (maximum fold increase of SMN protein) (SMN protein): 1.6736

SMILES: Cc1cn2cc(NC(=O)c3ccc(N4CCN[C@@H](C)C4)cc3)nc2c(C)n1 [Example 3, N-(6,8-Dimethyl-imidazo[1,2-a]-pyrazin-2-yl)-4-((S)-3-methyl-piperazin-1-yl)-benzamide]
- EC (1.5-fold) [1]: 0.552 µM
- EC1.5x SMN protein (EC1.5x concentration for SMN protein expression) (SMN protein): 1.47 µM
- max. fold increase (maximum fold increase of SMN protein) (SMN protein): 1.7558

SMILES: Cc1cn2cc(NC(=O)c3ccc(N4CCN(C)CC4)cc3F)nc2c(C)n1 [Example 4, N-(6,8-dimethyl-imidazo[1,2-a]-pyrazin-2-yl)-2-fluoro-4-(4-methylpiperazin-1-yl)benzamide]
- EC (1.5-fold) [1]: 0.232 µM
- EC1.5x SMN protein (EC1.5x concentration for SMN protein expression) (SMN protein): 0.5614 µM
- max. fold increase (maximum fold increase of SMN protein) (SMN protein): 1.769

SMILES: Cc1cn2cc(NC(=O)c3ccc(N4CCN(C)CC4)nc3)nc2c(C)n1 [Example 6, N-(6,8-dimethyl-imidazo[1,2-a]-pyrazin-2-yl)-6-(4-methyl-piperazin-1-yl)nicotinarnide]
- EC (1.5-fold) [1]: 0.233 µM
- EC1.5x SMN protein (EC1.5x concentration for SMN protein expression) (SMN protein): 0.5305 µM
- max. fold increase (maximum fold increase of SMN protein) (SMN protein): 1.8047

SMILES: CCN1CCN(c2ccc(C(=O)Nc3cn4cc(C)nc(C)c4n3)cn2)CC1 [Example 8, N-(6,8-dimethyl-imidazo[1,2-a]-pyrazin-2-yl)-6-(4-ethyl-piperazin-1-yl)nicotinamide]
- EC (1.5-fold) [1]: 0.201 µM
- EC1.5x SMN protein (EC1.5x concentration for SMN protein expression) (SMN protein): 0.5175 µM
- max. fold increase (maximum fold increase of SMN protein) (SMN protein): 1.7677

SMILES: Cc1cn2cc(NC(=O)c3ccc(N4CCN(C)CC4)cn3)nc2c(C)n1 [Example 9, N-(6,8-dimethyl-imidazo[1,2-a]-pyrazin-2-yl)-5-(4-methyl-piperazin-1-yl)picolinamide]
- EC (1.5-fold) [1]: 0.794 µM
- EC1.5x SMN protein (EC1.5x concentration for SMN protein expression) (SMN protein): 1.527 µM
- max. fold increase (maximum fold increase of SMN protein) (SMN protein): 1.6085

SMILES: Cc1cn2cc(NC(=O)c3ccc(N4CCNCC4)cn3)nc2c(C)n1 [Example 11, N-(6,8-dimethyl-imidazo[1,2-a]-pyrazin-2-yl)-5-(piperazin-1-yl)picolinamide]
- EC (1.5-fold) [1]: 0.297 µM
- EC1.5x SMN protein (EC1.5x concentration for SMN protein expression) (SMN protein): 0.321 µM
- max. fold increase (maximum fold increase of SMN protein) (SMN protein): 1.7143

SMILES: Cc1cn2cc(NC(=O)c3ccc(N4CCNC(C)(C)C4)nc3)ccc2n1 [Example 13, 6-(3,3-dimethyl-piperazin-1-yl)-N-(2-methyl-imidazo[1,2-a]-pyridin-6-yl)-nicotinamide]
- EC (1.5-fold) [1]: 1.03 µM
- EC1.5x SMN protein (EC1.5x concentration for SMN protein expression) (SMN protein): 1.7564 µM
- max. fold increase (maximum fold increase of SMN protein) (SMN protein): 1.624

SMILES: Cc1cn2cc(NC(=O)c3ccc(N4CCNCC4)nc3)ccc2n1 [Example 14, N-(2-methyl-imidazo[1,2-a]-pyridin-6-yl)-6-(piperazin-1-yl)nicotinamide]
- EC (1.5-fold) [1]: 0.231 µM
- EC1.5x SMN protein (EC1.5x concentration for SMN protein expression) (SMN protein): 0.7944 µM
- max. fold increase (maximum fold increase of SMN protein) (SMN protein): 1.5912

SMILES: Cc1cn2cc(NC(=O)c3ccc(N4C[C@H]5CNC[C@H]5C4)nc3)ccc2n1 [Example 15, 6-hexahydro-pyrrolo[3,4-c]-pyrrol-2(1H)-yl)-N-(2-methyl-imidazo[1,2-a]-pyridin-6-yl)-nicotinamide hydrochloride]
- EC (1.5-fold) [1]: 0.254 µM
- EC1.5x SMN protein (EC1.5x concentration for SMN protein expression) (SMN protein): 0.281 µM
- max. fold increase (maximum fold increase of SMN protein) (SMN protein): 1.6859

SMILES: Cc1cn2cc(NC(=O)c3ccc(N4CC5(CNC5)C4)nc3)ccc2n1 [Example 16, N-(2-methyl-imidazo[1,2-a]-pyridin-6-yl)-6-(2,6-diazaspiro-[3,3]heptan-2-yl)nicotinamide hydrochloride]
- EC (1.5-fold) [1]: 1.04 µM
- EC1.5x SMN protein (EC1.5x concentration for SMN protein expression) (SMN protein): 1.1992 µM
- max. fold increase (maximum fold increase of SMN protein) (SMN protein): 1.6598

SMILES: Cc1cn2cc(NC(=O)c3ccc(N4CCNCC4)nc3)cc(C(F)(F)F)c2n1 [Example 19, N-(2-methyl-8-(trifluoromethyl)-imidazo[1,2-a]-pyridin-6-yl)-6-(piperazin-1-yl)-nicotinamide]
- EC (1.5-fold) [1]: 0.267 µM
- EC1.5x SMN protein (EC1.5x concentration for SMN protein expression) (SMN protein): 1.3818 µM
- max. fold increase (maximum fold increase of SMN protein) (SMN protein): 1.664

SMILES: Cc1cn2cc(NC(=O)c3ccc(N4CCN5CCC[C@H]5C4)nc3)cc(C(F)(F)F)c2n1 [Example 21, (S)-6-(hexahydro-pyrrolo[1,2-a]-pyrazin-2(1H)-yl)-N-(2-methyl-8-(trifluoromethyl)-imidazo[1,2-a]-pyridin-6-yl)-nicotinarnide]
- EC (1.5-fold) [1]: 0.386 µM
- EC1.5x SMN protein (EC1.5x concentration for SMN protein expression) (SMN protein): 0.6542 µM
- max. fold increase (maximum fold increase of SMN protein) (SMN protein): 1.7755

SMILES: Cc1cn2cc(NC(=O)c3ccc(N4CC(C)NC(C)C4)nc3)cc(C(F)(F)F)c2n1 (stereo not drawn) [Example 22, 6-(3,5-dimethyl-piperazin-1-yl)-N-(2-methyl-8-(trifluoromethyl)-imidazo[1,2-a]-pyridin-6-yl)-nicotinamide]
- EC (1.5-fold) [1]: 0.263 µM
- EC1.5x SMN protein (EC1.5x concentration for SMN protein expression) (SMN protein): 0.4468 µM
- max. fold increase (maximum fold increase of SMN protein) (SMN protein): 1.7566

SMILES: Cc1nc2c(F)cc(NC(=O)c3ccc(N4CC(C)NC(C)C4)nc3)cc2o1 (stereo not drawn) [Example 23, 6-(3,5-dimethyl-piperazin-1-yl)-N-(4-fluoro-2-methylbenzo[d]-oxazol-6-yl)-nicotinamide]
- EC (1.5-fold) [1]: 0.201 µM
- EC1.5x SMN protein (EC1.5x concentration for SMN protein expression) (SMN protein): 0.5092 µM
- max. fold increase (maximum fold increase of SMN protein) (SMN protein): 1.6942

SMILES: Cc1nc2c(F)cc(NC(=O)c3ccc(N4CCN(C)CC4)nc3)cc2o1 [Example 24, N-(4-fluoro-2-methylbenzo[d]-oxazol-6-yl)-6-(4-methylpiperazin-1-yl)nicotinamide]
- EC (1.5-fold) [1]: 0.649 µM
- EC1.5x SMN protein (EC1.5x concentration for SMN protein expression) (SMN protein): 1.2616 µM
- max. fold increase (maximum fold increase of SMN protein) (SMN protein): 1.756
